Experimental data as given in patent US20140357655A1, “SPIROINDOLINE DERIVATIVES AS GONADOTROPIN- RELEASING HORMONE RECEPTOR ANTAGONISTS” (Bayer Intellectual Property GmbH, priority 2012, published 2014).

Biological target: T1, human GnRH receptor (Homo sapiens, UniProt P30968)
T1 sequence (P30968 1-328): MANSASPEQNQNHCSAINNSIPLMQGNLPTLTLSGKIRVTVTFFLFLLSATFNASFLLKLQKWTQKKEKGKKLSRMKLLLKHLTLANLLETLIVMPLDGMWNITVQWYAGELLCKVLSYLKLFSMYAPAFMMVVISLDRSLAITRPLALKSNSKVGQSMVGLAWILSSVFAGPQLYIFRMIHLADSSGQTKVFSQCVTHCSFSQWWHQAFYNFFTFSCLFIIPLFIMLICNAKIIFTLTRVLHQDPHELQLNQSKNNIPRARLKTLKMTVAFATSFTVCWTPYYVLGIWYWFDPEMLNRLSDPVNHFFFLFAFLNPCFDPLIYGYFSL
Test: IP-One HTRF assay with buserelin (at EC80) stimulation
Format: cell-based
Conditions: CHO cells stably expressing human GnRH receptor, read-out: Potency in IP-One HTRF assay, given as IC50
In short: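 CHO cells stably expressing human GnRH receptor, preincubated 1 h at 37° C with IP1-d2, were exposed to compound and buserelin at EC80 for 1 h at 37° C. After lysis with Tb-anti-IP1 antibody (1 h, 22° C), 665/620 nm HTRF ratio read; 10 concentrations, 20 μM–1 nM, duplicates, 4-parameter IC50.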

SMILES	IC50 [nM]
CS(=O)(=O)c1cccc(NC(=O)c2ccc3c(c2)C2(CCS(=O)(=O)CC2)C(C2CC2)N3S(=O)(=O)c2ccc(F)cc2)c1 (single isomer, unassigned) [Example 23.1, 2-cyclopropyl-1-[(4-fluorophenyl)sulfonyl]-N-(3-mesylphenyl)-1,2,2′,3′,5′,6′-hexahydrospiro[indole-3,4′-thiopyran]-5-carboxamide 1′,1′-dioxide]	1870
COc1cccc(S(=O)(=O)N2c3ccc(C(=O)NCc4ncccc4Cl)cc3C3(CCS(=O)(=O)CC3)C2C2CC2)c1 (single isomer, unassigned) [Example 41.1, N-[(3-chloropyridin-2-yl)methyl]-2-cyclopropyl-1-[(3-methoxyphenyl)sulfonyl]-1,2,2′,3′,5′,6′-hexahydrospiro[indole-3,4′-thiopyran]-5-carboxamide 1′,1′-dioxide]	102
O=C(O)c1cccc(NC(=O)c2ccc3c(c2)C2(CCS(=O)(=O)CC2)C(C2CC2)N3S(=O)(=O)c2ccc(F)cc2)c1 (single isomer, unassigned) [Example 49.1, 3-[({2-cyclopropyl-1-[(4-fluorophenyl)sulfonyl]-1′,1′-dioxido-1,2,2′,3′,5′,6′-hexahydrospiro[indole-3,4′-thiopyran]-5-yl}carbonyl)amino]benzoic acid]	40
CC1N(S(=O)(=O)c2ccc(F)cc2)c2ccc(C(=O)NCc3ccccc3S(C)(=O)=O)cc2C12CCOCC2 (stereo not shown) [Example 9, 1-[(4-fluorophenyl)sulfonyl]-N-(2-mesylbenzyl)-2-methyl-1,2,2′,3′,5′,6′-hexahydrospiro[indole-3,4′-pyran]-5-carboxamide]	4830
N#Cc1ccc(S(=O)(=O)N2c3ccc(C(=O)NCc4ncccc4Cl)cc3C3(CCS(=O)(=O)CC3)C2C2CC2)cc1 (stereo not shown) [Example 70, N-[(3-chloropyridin-2-yl)methyl]-1-[(4-cyanophenyl)sulfonyl]-2-cyclopropyl-1,2,2′,3′,5′,6′-hexahydrospiro[indole-3,4′-thiopyran]-5-carboxamide 1′,1′-dioxide]	63
O=C(NCc1ncccc1C(F)(F)F)c1ccc2c(c1)C1(CCS(=O)(=O)CC1)C(C1CC1)N2S(=O)(=O)c1cccc(OC(F)F)c1 (stereo not shown) [Example 87, 2-cyclopropyl-1-{[3-(difluoromethoxy)phenyl]sulfonyl}-N-{[3-(trifluoromethyl)pyridin-2-yl]methyl}-1,2,2′,3′,5′,6′-hexahydrospiro[indole-3,4′-thiopyran]-5-carboxamide 1′,1′-dioxide]	143
CC1N(S(=O)(=O)c2ccc(F)cc2)c2ccc(C(=O)NCc3ncccc3Cl)cc2C12CCOCC2 (single isomer, unassigned) [Example 1.1, N-[(3-Chloropyridin-2-yl)methyl]-1-[(4-fluorophenyl)sulfonyl]-2-methyl-1,2,2′,3′,5′,6′-hexahydrospiro[indole-3,4′-pyran]-5-carboxamide]	146
O=C(NCC1CC1)c1ccc2c(c1)C1(CCS(=O)(=O)CC1)C(C1CC1)N2S(=O)(=O)c1ccc(F)cc1 (single isomer, unassigned) [Example 35.2, 2-cyclopropyl-N-(cyclopropylmethyl)-1-[(4-fluorophenyl)sulfonyl]-1,2,2′,3′,5′,6′-hexahydrospiro[indole-3,4′-thiopyran]-5-carboxamide 1′,1′-dioxide]	> 20000
O=C(NCc1ccc(F)cc1Cl)c1ccc2c(c1)C1(CCS(=O)(=O)CC1)C(C1CC1)N2S(=O)(=O)c1ccc(F)cc1 (single isomer, unassigned) [Example 16.1, N-(2-chloro-4-fluorobenzyl)-2-cyclopropyl-1-[(4-fluorophenyl)sulfonyl]-1,2,2′,3′,5′,6′-hexahydrospiro[indole-3,4′-thiopyran]-5-carboxamide 1′,1′-dioxide]	62
N#Cc1cccc(S(=O)(=O)N2c3ccc(C(=O)NCc4ccccc4Cl)cc3C3(CCS(=O)(=O)CC3)C2C2CC2)c1 (single isomer, unassigned) [Example 76.1, N-(2-chlorobenzyl)-1-[(3-cyanophenyl)sulfonyl]-2-cyclopropyl-1,2,2′,3′,5′,6′-hexahydrospiro[indole-3,4′-thiopyran]-5-carboxamide 1′,1′-dioxide]	21
COC(=O)c1cccc(NC(=O)c2ccc3c(c2)C2(CCS(=O)(=O)CC2)C(C2CC2)N3S(=O)(=O)c2ccc(F)cc2)c1 (single isomer, unassigned) [Example 34.2, methyl 3-[({2-cyclopropyl-1-[(4-fluorophenyl)sulfonyl]-1′,1′-dioxido-1,2,2′,3′,5′,6′-hexahydrospiro[indole-3,4′-thiopyran]-5-yl}carbonyl)amino]benzoate]	825
O=C(NCC1CCCC1)c1ccc2c(c1)C1(CCS(=O)(=O)CC1)C(C1CC1)N2S(=O)(=O)c1ccc(F)cc1 (single isomer, unassigned) [Example 38.2, N-(cyclopentylmethyl)-2-cyclopropyl-1-[(4-fluorophenyl)sulfonyl]-1,2,2′,3′,5′,6′-hexahydrospiro[indole-3,4′-thiopyran]-5-carboxamide 1′,1′-dioxide]	6860
COC(=O)c1cccc(NC(=O)c2ccc3c(c2)C2(CCS(=O)(=O)CC2)C(C2CC2)N3S(=O)(=O)c2ccc(F)cc2)c1 (single isomer, unassigned) [Example 34.1, methyl 3-[({2-cyclopropyl-1-[(4-fluorophenyl)sulfonyl]-1′,1′-dioxido-1,2,2′,3′,5′,6′-hexahydrospiro[indole-3,4′-thiopyran]-5-yl}carbonyl)amino]benzoate]	38
Cc1cncc(NC(=O)c2ccc3c(c2)C2(CCS(=O)(=O)CC2)C(C2CC2)N3S(=O)(=O)c2cccc(OC(F)(F)F)c2)c1 (stereo not shown) [Example 85, 2-cyclopropyl-N-(5-methylpyridin-3-yl)-1-{[3-(trifluoromethoxy)phenyl]sulfonyl}-1,2,2′,3′,5′,6′-hexahydrospiro[indole-3,4′-thiopyran]-5-carboxamide 1′,1′-dioxide]	804
N#Cc1ccc(S(=O)(=O)N2c3ccc(C(=O)Nc4ccccc4Cl)cc3C3(CCS(=O)(=O)CC3)C2C2CC2)cc1 (stereo not shown) [Example 74, N-(2-chlorophenyl)-1-[(4-cyanophenyl)sulfonyl]-2-cyclopropyl-1,2,2′,3′,5′,6′-hexahydrospiro[indole-3,4′-thiopyran]-5-carboxamide 1′,1′-dioxide]	66
COc1cccc(S(=O)(=O)N2c3ccc(C(=O)Nc4cccc(S(=O)(=O)N=C(N(C)C)N(C)C)c4)cc3C3(CCS(=O)(=O)CC3)C2C2CC2)c1 (stereo not shown) [Example 62, N-(3-{[bis(dimethylamino)methylidene]sulfamoyl}phenyl)-2-cyclopropyl-1-[(3-methoxyphenyl)sulfonyl]-1,2,2′,3′,5′,6′-hexahydrospiro[indole-3,4′-thiopyran]-5-carboxamide 1′,1′-dioxide]	9.8
O=C(NCc1ccccc1Cl)c1ccc2c(c1)C1(CC[S+]([O-])CC1)C(C1CC1)N2S(=O)(=O)c1ccc(F)cc1 (single isomer, unassigned) [Example 13.2, N-(2-Chlorobenzyl)-2-cyclopropyl-1-[(4-fluorophenyl)sulfonyl]-1,2,2′,3′,5′,6′-hexahydrospiro[indole-3,4′-thiopyran]-5-carboxamide 1′-oxide]	383
CC1N(S(=O)(=O)c2ccc(F)cc2)c2ccc(C(=O)NCc3ncccc3Cl)cc2C12CCS(=O)(=O)CC2 (stereo not shown) [Example 26, N-[(3-chloropyridin-2-yl)methyl]-1-[(4-fluorophenyl)sulfonyl]-2-methyl-1,2,2′,3′,5′,6′-hexahydrospiro[indole-3,4′-thiopyran]-5-carboxamide 1′,1′-dioxide]	646
CC1N(S(=O)(=O)c2ccc(F)cc2)c2ccc(C(=O)NCc3ncc(F)cc3Cl)cc2C12CCS(=O)(=O)CC2 (stereo not shown) [Example 28, N-[(3-chloro-5-fluoropyridin-2-yl)methyl]-1-[(4-fluorophenyl)sulfonyl]-2-methyl-1,2,2′,3′,5′,6′-hexahydrospiro[indole-3,4′-thiopyran]-5-carboxamide 1′,1′-dioxide]	405
O=C(NCC1CCCCC1)c1ccc2c(c1)C1(CCS(=O)(=O)CC1)C(C1CC1)N2S(=O)(=O)c1ccc(F)cc1 (single isomer, unassigned) [Example 36.2, N-(cyclohexylmethyl)-2-cyclopropyl-1-[(4-fluorophenyl)sulfonyl]-1,2,2′,3′,5′,6′-hexahydrospiro[indole-3,4′-thiopyran]-5-carboxamide 1′,1′-dioxide]	3890
Cc1cccnc1CNC(=O)c1ccc2c(c1)C1(CCS(=O)(=O)CC1)C(C1CC1)N2S(=O)(=O)c1ccc(F)cc1 (single isomer, unassigned) [Example 31.2, 2-cyclopropyl-1-[(4-fluorophenyl)sulfonyl]-N-[(3-methylpyridin-2-yl)methyl]-1,2,2′,3′,5′,6′-hexahydrospiro[indole-3,4′-thiopyran]-5-carboxamide 1′,1′-dioxide]	15100
CC(C)(NC(=O)c1ccc2c(c1)C1(CCS(=O)(=O)CC1)C(C1CC1)N2S(=O)(=O)c1ccc(F)cc1)c1ccc(F)cc1Cl (stereo not drawn) [Example 19, N-(2-chloro-4-fluoro-α,α-dimethylbenzyl)-2-cyclopropyl-1-[(4-fluorophenyl)sulfonyl]-1,2,2′,3′,5′,6′-hexahydrospiro[indole-3,4′-thiopyran]-5-carboxamide 1′,1′-dioxide]	4170
